From PubChem BioAssay AID488890 (Southern Research Specialized Biocontainment Screening …, 2010)
Records with an inconclusive call do not appear. The source made the active and inactive calls. No rule for the calls is given here.

System: Mycobacterium tuberculosis non-replicating, growth inhibition
Experiment: growth inhibition of non-replicating M. tuberculosis (AID 488890)

| SMILES | IC50 |
| --- | --- |
| Cc1cc(=O)[nH]c(-n2nc(C)cc2C)n1 | 4.88 µM |
| O=C(COC(=O)c1ccccc1Br)Nc1ccccc1F | 14.7 µM (inactive) |
| O=c1oc(-c2ccccc2[N+](=O)[O-])nc2ccccc12 | 18.9 µM (inactive) |
| Cc1ccccc1-n1ncc2c([N+](=O)[O-])cc([N+](=O)[O-])cc21 | 4.83 µM |
| COc1ccccc1N=Cc1nc(-c2ccccc2)oc1OC(C)=O | 19.6 µM (inactive) |
| CC1(C)CC(=O)C(C2NCCc3ccccc32)=C(O)C1 (stereo unspecified) | 30.8 µM (inactive) |
| COc1ccc(OC(=O)CCc2c[nH]c3ccccc23)cc1 | 3.37 µM |
| CCOC(=O)c1cc(-c2csc(COc3ccccc3Cl)n2)on1 | < 0.1 µM |
| Cc1ccccc1-n1nnc2c(=O)oc3ccccc3c21 | 0.44 µM |
| O=C(N/N=C/C=C/c1ccccc1[N+](=O)[O-])c1ccncc1 | 1.23 µM |
| COC(=O)c1ccc(Cn2cc(C(F)(F)F)cc([N+](=O)[O-])c2=O)cc1 | 1.7 µM |
| CCOC(=O)COc1ccc2c(c1)C(=O)CC1(CCCCC1)O2 | 0.6 µM |
| COC(=O)c1cc2c(ccc3ccccc32)oc1=O | 6.24 µM |
| Cc1ccc2nc(C)c3c(c2c1)COC3 | 29.8 µM (inactive) |
| CCOC(=O)c1cnc(Nc2nc3ccccc3o2)nc1CSC(=S)N1CCCCC1 | 1.49 µM |
| CN(CC(=O)Nc1ccc(C#N)cc1)Cc1ccc(Cl)c(Cl)c1 | 12.9 µM (inactive) |
| CC(C)(C)c1ccc(OCCC(=O)OCC(=O)NC2CC2)cc1 | 23.6 µM (inactive) |
| Cc1ccc(NC(=O)CNc2ccc(OC(C)C)cc2)cc1 | 4.11 µM |
| CCc1nonc1NC(=O)COc1ccc(Cl)c(C)c1 | 9.9 µM |
| CC1(c2nnc(Cc3ccccc3)o2)CC(c2ccccc2[N+](=O)[O-])=NO1 (stereo unspecified) | 10.5 µM (inactive) |
| Cc1ccc(NC(=O)CO/N=C/c2ccc(N(C)C)cc2)cc1 | 7.84 µM |
| Cc1cc(NC2CCCCC2)nc(NCc2ccccc2)n1 | 3.65 µM |
| Oc1cc(NCc2cccnc2)ccc1-c1nc2ccccc2o1 | 47.1 µM (inactive) |
| CN(C)CC(C(=O)c1ccccc1)c1ccccc1 (stereo unspecified) | 2.83 µM |

| SMILES | IC50 |
| --- | --- |
| COC(=O)COc1cccc(NC(=O)c2ccc(Cl)cc2)c1 | 3.98 µM |
| Cc1cc2cc(CNC(=O)C3CCCC3)ccc2n1C | 17.5 µM (inactive) |
| CCOC(=O)c1c(C)nc2c3ccccc3ccn12 | 13.3 µM (inactive) |
| CCCN(Cc1nnc(-c2ccccc2Cl)o1)C(=O)c1cc([N+](=O)[O-])cc([N+](=O)[O-])c1 | 5.83 µM |
| CCCCn1c(=O)c(C(=O)Nc2ncccc2C)c(O)c2ccccc21 | 3.81 µM |
| O=C(N/N=C/c1ccccn1)c1ccccc1 | 14.6 µM (inactive) |
| Cc1cccc(NC(=O)c2ccc(OC3CSC3)cc2)c1 | 28.7 µM (inactive) |
| CCc1ccc(N2C(=O)NC(=O)/C(=C\C=C\c3ccco3)C2=O)cc1 | 10.9 µM (inactive) |
| Cc1ccnc(-n2sc3ccccc3c2=O)n1 | 25.6 µM (inactive) |
| O=C(Nc1nc2c(Cl)cccc2s1)c1ccc([N+](=O)[O-])o1 | 1.56 µM |
| OC(COc1ccccc1Cl)CN1CCN(CC(O)COc2ccccc2Cl)CC1 (stereo unspecified) | 19 µM (inactive) |
| O=[N+]([O-])c1ccc2nc(SCc3cn4ccccc4n3)[nH]c2c1 | 8.98 µM |
| O=C(c1ccccc1)C(CN1CCCC1)c1ccccc1 (stereo unspecified) | 5.51 µM |
| CC(C)(C)NC(=O)C(=O)NNC(=O)COc1ccc(Br)cc1 | 12 µM (inactive) |
| CC(C)c1ccc(N2C(=O)CC(Sc3ncn[nH]3)C2=O)cc1 (stereo unspecified) | 11.2 µM (inactive) |
| O=C(CN1CCC(Cc2ccccc2)CC1)NC(=O)NC1CCCCC1 | 19 µM (inactive) |
| O=C(Nc1nnc(-c2ccc(Br)cc2)o1)c1ccco1 | 11.4 µM (inactive) |
| OC(CNCCc1ccc(C(F)(F)F)cc1)COc1ccc2ccccc2c1 (stereo unspecified) | 8.28 µM |
| CC(=O)c1ccc(NC(=O)CCc2ccc(C)o2)cc1 | 25.8 µM (inactive) |
| Clc1ccccc1CSc1nnc([C@@H]2CCCN2)o1 | 12.2 µM (inactive) |
| O=C(N/N=C/c1cccc(F)c1)c1c(O)c2ccccc2[nH]c1=O | 3.17 µM |
| CCOC(=O)c1ccc(NC2=CC(=O)C(=O)c3ccccc32)cc1 | 9.94 µM |
| CN(C)Cc1ccccc1Sc1ccc(Br)cc1 | 27.7 µM (inactive) |
| O=C(Nc1nnc(C2=COCCO2)o1)c1ccc(Cc2ccccc2)cc1 | 30.6 µM (inactive) |

| SMILES | IC50 |
| --- | --- |
| CCOc1ccc(C(=O)C(CN2CCOCC2)c2ccccc2)cc1 (stereo unspecified) | 3.62 µM |
| CCCCn1c(=O)c(C(=O)Nc2nnc(C(C)C)s2)c(O)c2ccccc21 | 1.87 µM |
| C/C(=N\NC(=O)c1cccs1)c1ccc2c(c1)OCO2 | 8.78 µM |
| CC(C)[C@H]1CN=C2N(C[C@H](C)NC(=O)CCC3CCCCC3)[C@H](Cc3ccc(O)cc3)CN21 | 19.3 µM (inactive) |
| C/C(=C\C(=O)c1ccncc1)Nc1ccccc1O | 4.15 µM |
| Cc1cc(OCCCCn2ccnc2)cc(C)c1Cl | 4.68 µM |
| CCC(=O)Nc1ccc(C(=O)NNC(=O)c2cc([N+](=O)[O-])cc([N+](=O)[O-])c2)cc1 | 12.9 µM (inactive) |
| CCc1ccc(OCC(=O)NNC(=O)c2cnccn2)c(Br)c1 | 4.69 µM |
| CCOc1ccc(C(=O)Nc2nc3ccccc3[nH]2)cc1OCC | 9.11 µM |
| CCC(=O)c1ccc(OCC(=O)OCC(=O)c2cc(C)n(C3CC3)c2C)cc1 | 7.97 µM |
| CCCOC(=O)c1ccc(OC(=O)c2ccco2)cc1 | 21.9 µM (inactive) |
| C/C(=N\NC(=O)c1ccccc1OCc1ccc(F)cc1)c1ccccn1 | 2.82 µM |
| Cc1cc(N2CCCCC2)nc(NCc2ccccc2)n1 | 8.38 µM |
| O=C(N/N=C/c1ccc(Br)s1)c1ccncc1 | 0.47 µM |
| CCn1c(-c2ccco2)nc2ccccc21 | 8.99 µM |
| CCOC(=O)COn1c2c(c3c4no[n+]([O-])c4ccc31)CCCC2 | 1.13 µM |
| CCOC(=O)Cc1ccc(NCc2ccc(Cl)cc2)cc1 | 10.8 µM (inactive) |
| CC1=CC(C)(C)Nc2ccc(OC(=O)CN3C(=O)c4ccccc4C3=O)cc21 | 9.07 µM |
| O=C(Nc1nnc(-c2ccc(F)cc2)o1)c1cc(Cl)sc1Cl | 7.95 µM |
| CC(C)(C)c1ccc2c(c1)OC(C(=O)N/N=C\c1ccccn1)CO2 (stereo unspecified) | 4.8 µM |
| Cn1c(O)c(C(=Nc2ccccc2)SCc2ccccc2Cl)c(=O)n(C)c1=O | 8.25 µM |
| CC(CN1CCOCC1)OC(=O)c1ccc2c(c1)OCCO2 (stereo unspecified) | 33.5 µM (inactive) |
| CC(NCC(O)COCCC12CC3CC(CC(C3)C1)C2)c1ccccc1 (stereo unspecified) | 7.88 µM |
| CSc1nc2ccc(NC(=O)C3CC(=O)N(Cc4ccccc4)C3)cc2s1 (stereo unspecified) | 13.6 µM (inactive) |

| SMILES | IC50 |
| --- | --- |
| O=C(Nc1sc2c(c1C(=O)O)CCCC2)c1ccc(F)cc1 | 24.3 µM (inactive) |
| Cc1cccc(C(=O)Nc2nnc(-c3cccnc3)o2)c1 | 7.46 µM |
| COc1cccc2cc(-c3nc4ccccc4[nH]3)c(=O)oc12 | < 0.2 µM |
| Fc1ccc(-c2nnc(CSc3nnc(-c4cccs4)o3)o2)cc1 | 3.68 µM |
| O=C(O)COc1ccc2occ(C(=O)c3ccccc3)c2c1 | 6.46 µM |
| Clc1ccc2c(N3CCCC3)ccnc2c1 | 16.4 µM (inactive) |
| Cc1nnc(NC(=O)c2ccc3ccccc3c2)o1 | 1.55 µM |
| CC(C)C(=O)N1CCN(c2ccc(NC(=O)c3ccc([N+](=O)[O-])o3)cc2)CC1 | 1.24 µM |
| CC(C)c1ccc(C2=C(O)c3ccccc3C(=O)C2=O)cc1 | 3.7 µM |
| CCOc1ccc(NC(=O)COC(=O)C2(C)CC2(Cl)Cl)c([N+](=O)[O-])c1 (stereo unspecified) | 10.8 µM (inactive) |
| COC(=O)CCCCCN1C(=O)/C(=C\c2ccncc2)SC1=S | 3.94 µM |
| CCOc1ccccc1NC(=O)COn1nnc2ccc(Cl)cc21 | 10.5 µM (inactive) |
| c1ccc(Nc2nc(-c3ccccn3)cs2)cc1 | 2.66 µM |
| COc1ccc(N2C(=O)NC(=O)/C(=C/c3ccc([N+](=O)[O-])s3)C2=O)cc1 | 16.1 µM (inactive) |
| COC(=O)c1cc(-c2ccc(OC)cc2)on1 | 1.55 µM |
| Cc1cccnc1NC(=O)C1COc2ccccc2O1 (stereo unspecified) | 29.6 µM (inactive) |
| Nc1nc2ccccc2n1CCOc1ccc(Br)cc1 | 21.5 µM (inactive) |
| Cc1cc(Nc2ccccc2)n(-c2nc3ccccc3[nH]2)n1 | 3.88 µM |
| Cc1ccc(C(C)NC(=O)c2cc3ccccc3oc2=O)cc1C (stereo unspecified) | 3.07 µM |
| CCCC(=O)N1CCC(Cc2ccccc2)CC1 | 3.47 µM |
| O=C(N/N=C/C=C/c1ccco1)c1ccncc1 | 1.19 µM |
| O=C(Nc1nnc(C2=COCCO2)o1)c1ccc(F)cc1 | 15.9 µM (inactive) |
| Cc1ccc2[nH]c3c(c2c1)CCCC3NCCO (stereo unspecified) | 13.7 µM (inactive) |
| Cc1ccccc1C(=O)Nc1nnc(-c2ccco2)o1 | 4.97 µM |

| SMILES | IC50 |
| --- | --- |
| CCc1ccc(NC(=O)C(=O)NNC(=O)COc2cccc(OC)c2)cc1 | 2.49 µM |
| O=C(CCSc1nnc(-c2ccccc2)o1)N1CCOCC1 | 3.95 µM |
| CN1CC(=O)NC1=NC(=O)C12CC3CC(CC(C3)C1)C2 | 4.08 µM |
| CCOC(=O)N1CCN(Cc2cc(Cl)c3cccnc3c2O)CC1 | 3.55 µM |
| O=C(O/N=C/c1ccc2c(c1)OCO2)c1ccc([N+](=O)[O-])cc1 | 11.6 µM (inactive) |
| CN1/C(=C\C=N\NC(=O)c2cccnc2)C(C)(C)c2ccccc21 | 46.5 µM (inactive) |
| C=CCn1c(=O)c(C(=O)Nc2cccnc2)c(O)c2ccccc21 | 7.58 µM |
| Cc1cc(NC(=O)c2cc([N+](=O)[O-])cc([N+](=O)[O-])c2)no1 | 17.3 µM (inactive) |
| CCc1ccc2c(c1)Sc1ccccc1CC2N1CCN(C)CC1 (stereo unspecified) | 13.6 µM (inactive) |
| Cn1cnc([N+](=O)[O-])c1Sc1ccc([N+](=O)[O-])cc1 | 19.7 µM (inactive) |
| O=C1CSC(=S)N1Cc1cccnc1 | 6.18 µM |
| CCOC(=O)COc1cc([N+](=O)[O-])cc2cccnc12 | 25.5 µM (inactive) |
| COC(=O)c1ccc(Sc2nnnn2-c2ccccc2)c([N+](=O)[O-])c1 | 7.81 µM |
| O=C(CCN1C(=O)/C(=C/c2ccccc2Cl)SC1=S)N1CCCC1 | 7.03 µM |
| CCCOc1ccc(C(=O)C(CN2CCCC2)c2ccccc2)cc1 (stereo unspecified) | 3.82 µM |
| CSc1ccc(C(=O)C2CCCN(C(=O)c3ccc4c(c3)no[n+]4[O-])C2)cc1 (stereo unspecified) | 4.03 µM |
| CCOC(=O)COc1cc(N)c(Cl)cc1Cl | 5.21 µM |
| Cc1cc(N/N=C/c2ccc(O)cc2O)nc(-n2nc(C)cc2C)n1 | 0.77 µM |
| CC(=O)N1CCN(C(=O)CC2OC(=O)c3ccccc32)CC1 (stereo unspecified) | 18.9 µM (inactive) |
| CC(C)CNc1nc(=S)nc(N(C)C)[nH]1 | 11.5 µM (inactive) |
